Measurements from EPA's ToxValDB 9.5.
“And” between values parts separate entries of the source, which are not always exact repeats. Equal entries are not always repeated.

What was measured:
[1] = test system: Mus musculus
[2] = test system: Rattus norvegicus
[3] = test system: Rattus norvegicus; remark: listed apart in the source
[4] = test system: Rattus norvegicus; settings: for LOEL / NOEL: Hershberger, duration: 10 days, gavage, Wistar, active + Negative + Antiandrogenic + anti-androgenic
[5] = test system: Rattus norvegicus; settings: subchronic; oral; gavage; M; Sprague-Dawley; Clinical Observation: Diarrhea Soft feces + Body Weight Changes: decrease, R + Food Consumption: decrease + Urinalysis: Urine volume …
[6] = test system: Rattus norvegicus; settings: short-term
[7] = repeat dose other, inhalation, B6C3F1
[8] = duration: 3 days, injection, subcutaneous, F, Crj:CD, uterus: uterine dry weight (absolute) + uterus: uterine dry weight (relative) + uterus: uterine wet weight (absolute) + uterus: uterine wet …
[9] = duration: 28 days, oral, gavage, F, Crl:CD(SD), A/G ratio + phospholipid + triglyceride
[10] = duration: 28 days, oral, gavage, F, Crl:CD(SD), cholinesterase + inorganic phosphorus + kidney: abnormal kidney histopathological changes
[11] = duration: 28 days, oral, gavage, F, Crl:CD(SD), uterus: uterine dry weight (absolute) + uterus: uterine dry weight (relative) + uterus: uterine wet weight (absolute) + uterus: uterine wet …
[12] = duration: 28 days, oral, gavage, M, Crl:CD(SD), alanine aminotransferase + body weight + brain: brain weight + gamma-glutamyl transpeptidase + heart: heart weight + hematocrit + kidney: …
[13] = duration: 28 days, oral, gavage, M, Crl:CD(SD), heart: heart weight
[14] = uterotrophic, duration: 3 days, injection, subcutaneous, Active
[15] = uterotrophic, duration: 36 days, injection, subcutaneous, Active

## [Cl-].[Cl-].[Co+2] [Cobalt chloride]
[1]; developmental, duration: 5 days, oral, gavage, ICR
  NOAEL: 180 mg/kg-day
[2]; chronic, duration: 150 days, oral, gavage
  LOAEL: 4 mg/kg-day

## CCCCCCCCCCCCOC(=O)CCSCCC(=O)OCCCCCCCCCCCC [Propanoic acid, 3,3'-thiobis-, didodecyl ester]
[1]; acute, oral
  LD50: > 2000 mg/kg
[2]; acute, oral
  LD50: > 2500 mg/kg
[2]; reproduction developmental, duration: 13 weeks, oral, gavage, Sprague-Dawley
  NOAEL: 350 mg/kg-day
[2]; subchronic, duration: 13 weeks, oral, gavage, Sprague-Dawley
  NOAEL: 350 mg/kg-day

## C1CO1 [Ethylene oxide]
[3]; developmental, duration: 364 days, inhalation, whole body, M/F, CD, developmental
  NOAEL: 18 mg/m3

## C=CC(=C)C [Isoprene]
[1]; acute, inhalation
  LC50: 180000 mg/m3 and 157000 mg/m3
[1]; developmental, duration: 6 days, inhalation, CD-1/Swiss, generation: F1
  NOAEL: 19500 mg/m3
[1]; [7]
  LOAEL: 195 mg/m3
  NOAEL: 27.9 mg/m3
[1]; reproduction developmental, inhalation, B6C3F1
  NOAEL: 195 mg/m3
[2]; acute, inhalation
  LC50: 180000 mg/m3 and 157000 mg/m3
[2]; developmental, duration: 6 days, inhalation, Sprague-Dawley, generation: F1
  NOAEL: 19500 mg/m3
[2]; reproduction developmental, inhalation, Fischer 344
  NOAEL: 195 mg/m3

## CC(C)COC(=O)C(C)C [Isobutyl isobutyrate]
[1]; acute, oral
  LD50: > 6400 mg/kg
[2]; acute, oral
  LD50: > 6400 mg/kg

## CC(=O)[C@@]1(O)CC[C@H]2[C@@H]3C[C@H](C)C4=CC(=O)CC[C@]4(C)[C@H]3CC[C@@]21C [Medroxyprogesterone]
[4]; oral
  LOEL: 100 mg/kg-day
  NOEL: 20 mg/kg-day

## CCCCCCCCCCCCCCCCCCOC(=O)CCSCCC(=O)OCCCCCCCCCCCCCCCCCC [Distearyl thiodipropionate]
[1]; acute, injection, Intraperitoneal
  LD50: > 2000 mg/kg
[1]; acute, oral
  LD50: > 2000 mg/kg
[2]; acute, dermal
  LD50: > 2000 mg/kg
[2]; acute, oral
  LD50: > 5000 mg/kg

## CC(C)OB(OC(C)C)OC(C)C [Triisopropyl orthoborate]
[1]; acute, oral, Swiss
  LD50: 2500 mg/kg
[2]; acute, oral, gavage
  LD50: 8130 mg/kg

## NS(=O)(=O)C(F)(F)C(F)(F)C(F)(F)C(F)(F)C(F)(F)C(F)(F)C(F)(F)C(F)(F)F [Perfluorooctanesulfonamide]
[3]; acute, duration: 1 days, oral, gavage, M, Sprague-Dawley, Hepatic: No alterations in liver weight
  NOAEL: 5 mg/kg-day

## CC(=O)S[C@@H]1CC2=CC(=O)CC[C@]2(C)[C@H]2CC[C@@]3(C)[C@@H](CC[C@@]34CCC(=O)O4)[C@H]12 [Spironolactone]
[4]; oral
  LOEL: 40 mg/kg-day
  NOEL: 8 mg/kg-day

## Oc1ccc(C2(c3ccc(O)cc3)CCCCC2)cc1 [Bisphenol Z]
[5]
  NOEL: 20 mg/kg-day
[6]; [8]
  LOEL: 30 mg/kg-day
  NOEL: 6 mg/kg-day
[6]; [9]
  LOEL: 100 mg/kg-day
  NOEL: 30 mg/kg-day
[6]; [10]
  LOEL: 300 mg/kg-day
  NOEL: 100 mg/kg-day
[6]; [11]
  LOEL: 30 mg/kg-day
  NOEL: 6 mg/kg-day
[6]; [12]
  LOEL: 300 mg/kg-day
  NOEL: 100 mg/kg-day
[6]; [13]
  LOEL: 100 mg/kg-day
  NOEL: 30 mg/kg-day
[6]; duration: 28 days, oral, gavage, M, Crl:CD(SD), thymus: serum T4
  LOEL: 30 mg/kg-day

## C[C@H]1CCC[C@H](O)CCC/C=C/c2cc(O)cc(O)c2C(=O)O1 [alpha-Zearalenol]
[4]; uterotrophic, duration: 3 days, oral, Active
  LEL: 0.01 mg/day

## C[C@]12CC[C@H](O)CC1=CC[C@@H]1[C@@H]2CC[C@]2(C)C(=O)CC[C@@H]12 [Dehydroepiandrosterone]
[4]; [14]
  LEL: 6 mg
  LEL (mg/100 g BW): 0.6
[4]; uterotrophic, duration: 21 days, Active
  LEL: 1 mg/day
[4]; uterotrophic, duration: 28 days, oral, diet, Active
  LEL: 2000 mg/kg-day
[4]; [15]
  LEL: 30 mg/kg-day

## C[C@]12CCC(=O)C=C1CC[C@@H]1[C@@H]2CC[C@]2(C)C(=O)CC[C@@H]12 [4-Androstene-3,17-dione]
[4]; [14]
  LEL: 5 mg/day
[4]; uterotrophic, duration: 7 days, injection, subcutaneous, Active
  LEL: 5 mg/kg-day
[4]; uterotrophic, duration: 14 days, injection, subcutaneous, Active
  LEL: 2 mg/day
[4]; [15]
  LEL: 1 mg/kg-day
